Article PMC8657848, “Developmental Toxicity and Biotransformation of Two Anti-Epileptics in Zebrafish Embryos and Early Larvae” (International Journal of Molecular Sciences, 2021)

How the values were obtained:
zebrafish embryos/larvae = assay: Quantification of metabolites E-CBZ and HPPH in pooled culture medium exposed to zebrafish embryos/larvae; type: in vivo, Danio rerio; conditions: 250 µM CBZ
Description: The control and test mediums were also kept in the same incubator until the last time point of the experiment. The embryo media were renewed every 48 h, to avoid medium acidification and oxygen deprivation. At each medium change and at the last time point of the experiment (Figure 9), the media exposed to the embryos were pooled and kept at −80 °C for further use (n = 3).

[1] = Microsomal incubation with CBZ and PHE, rabbit liver microsomes; type: in vitro ADME; conditions: rabbit adult liver microsomes; data not shown
Description: Moreover, positive and negative controls were included: pooled human liver microsomes (Gibco™, HMMCPL–PL050B, Thermo Fisher Scientific) and Insect Cell Control Supersomes™ (lot number: PL050 C-B, 456201, Corning Incorporated, Corning, NY, USA), respectively. Based on Oziolor et al., microsomal reactions were initiated after adding the substrate solution at a concentration of 100 µM (see Supplementary Table S1) in a mixture of 100 mM K3PO4 buffer (Corning® Gentest™, NY, USA) of pH 7.4, 5% and 1% of NADPH regenerating system reagents A and B, respectively (Corning, Woburn, MA, USA) and 200 µg/mL of microsomal protein, for a total volume of 500 µL. The reactions were performed at 28.5 ± 0.3 °C until the time point of interest. […]
For the quantification of the metabolites E-CBZ and HPPH, the samples processed were the microsomal incubation reactions (see Section 4.3.2), the zebrafish culture and stock medium (4.2.1) and the zebrafish embryos/larvae extracts (see Section 4.2.3). […] To quantify the concentrations of E-CBZ and HPPH in these samples, standard curves (in duplicate) of 10 concentrations for E-CBZ (0.5–400 ng/mL; see Supplementary Table S1) and HPPH (2–1600 ng/mL; see Supplementary Table S1) were prepared, as were quality controls. […]

[2] = Microsomal incubation with CBZ and PHE, adult zebrafish liver microsomes; type: in vitro ADME, Danio rerio; conditions: data not shown
[3] = parameters: method as in PMID 20832863; conditions: after 70.5 h of exposure (time point 72 hpf); cited from earlier work
[4] = Microsomal incubation with CBZ and PHE, supersomes (negative control); type: in vitro ADME; conditions: data not shown
Description: Moreover, positive and negative controls were included: pooled human liver microsomes (Gibco™, HMMCPL–PL050B, Thermo Fisher Scientific) and Insect Cell Control Supersomes™ (lot number: PL050 C-B, 456201, Corning Incorporated, Corning, NY, USA), respectively. Based on Oziolor et al., microsomal reactions were initiated after adding the substrate solution at a concentration of 100 µM (see Supplementary Table S1) in a mixture of 100 mM K3PO4 buffer (Corning® Gentest™, NY, USA) of pH 7.4, 5% and 1% of NADPH regenerating system reagents A and B, respectively (Corning, Woburn, MA, USA) and 200 µg/mL of microsomal protein, for a total volume of 500 µL. The reactions were performed at 28.5 ± 0.3 °C until the time point of interest. […] The reactions were stopped at two time points (5 and 240 min) by sampling 40 µL, in duplicate, of the main microsomal reaction and mixed with 120 µL cold (4 °C) acetonitrile (ACN) (Merck, Darmstadt, Germany) already containing the internal standard (IS), LAMO. The samples were then centrifuged for 10 min at 10,000× g to precipitate the proteins, which were denatured in cold ACN.

| Structure (SMILES) | Increase of E-CBZ in culture medium between 96 and 120 hpf (zebrafish embryos/larvae) | Decrease of parent compound after 240 min (pilot investigation) [1] | Decrease of parent compound after 240 min (pilot investigation) [2] | Average quantified concentration higher than the nominal concentration [3] | Decrease of parent compound after 240 min (pilot investigation) [4] |
| --- | --- | --- | --- | --- | --- |
| NC(=O)N1c2ccccc2C=Cc2ccccc21 [CBZ, carbamazepine] | six-fold | slight decrease | no changes | 22.3% |  |
| O=C1NC(=O)C(c2ccccc2)(c2ccccc2)N1 [PHE, phenytoin] |  | very slight decrease | No decrease |  | No decrease |
